Experimental data from patent US10081624B2, “Heterocyclic compound” (Takeda Pharmaceutical Company Limited, priority 2014, dated 2018).

Columns and labels:
HDAC1 enzyme = target: T1, HDAC1 enzyme (Homo sapiens, UniProt Q13547); assay: HDAC1 enzyme inhibitory assay (HDAC-Glo I/II Assay kit); format: biochemical; conditions: 1 μM test compound; for inhibition at 1 µM: read-out: HDAC1 inhibitory rate (%) (1 μM)
T1 construct: prepared by transducing full length HDAC1 and HDAC6 genes into Sf-9 insect cells; GST; purchased SignalChem; host or cells: Sf-9 insect cells
T1 sequence (Q13547 whole entry): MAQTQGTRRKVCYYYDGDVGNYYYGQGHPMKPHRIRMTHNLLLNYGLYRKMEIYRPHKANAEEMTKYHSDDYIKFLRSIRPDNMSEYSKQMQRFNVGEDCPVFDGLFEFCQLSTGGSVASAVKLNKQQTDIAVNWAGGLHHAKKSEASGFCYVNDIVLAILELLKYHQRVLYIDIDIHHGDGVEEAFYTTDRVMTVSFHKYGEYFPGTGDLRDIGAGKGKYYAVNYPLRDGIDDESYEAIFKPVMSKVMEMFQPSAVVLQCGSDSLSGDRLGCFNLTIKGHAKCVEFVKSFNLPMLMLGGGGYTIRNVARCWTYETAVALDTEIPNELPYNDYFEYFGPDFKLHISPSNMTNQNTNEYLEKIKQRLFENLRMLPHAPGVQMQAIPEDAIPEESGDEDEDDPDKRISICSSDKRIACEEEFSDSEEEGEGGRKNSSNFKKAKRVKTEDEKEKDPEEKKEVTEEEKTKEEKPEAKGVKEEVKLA
In short: (§1)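 Sf-9-expressed GST-purified full-length HDAC1/HDAC6; cpd + enzyme 60 min RT, 24 mM Tris-HCl pH 7.5, 135 mM NaCl, 0.6 mM glutathione, 0.01% Tween-20; substrate-developer 20 min RT; luminescence; no-enzyme wells = 100% inhibition.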

HDAC6 enzyme = target: T2, HDAC6 enzyme (Homo sapiens, UniProt Q9UBN7); assay: HDAC6 enzyme inhibitory assay (HDAC-Glo I/II Assay kit); format: biochemical; conditions: 1 μM test compound; for inhibition at 1 µM: read-out: HDAC6 inhibitory rate (%) (1 μM)
T2 construct: prepared by transducing full length HDAC1 and HDAC6 genes into Sf-9 insect cells; GST; purchased SignalChem; host or cells: Sf-9 insect cells
T2 sequence (Q9UBN7 1-1215): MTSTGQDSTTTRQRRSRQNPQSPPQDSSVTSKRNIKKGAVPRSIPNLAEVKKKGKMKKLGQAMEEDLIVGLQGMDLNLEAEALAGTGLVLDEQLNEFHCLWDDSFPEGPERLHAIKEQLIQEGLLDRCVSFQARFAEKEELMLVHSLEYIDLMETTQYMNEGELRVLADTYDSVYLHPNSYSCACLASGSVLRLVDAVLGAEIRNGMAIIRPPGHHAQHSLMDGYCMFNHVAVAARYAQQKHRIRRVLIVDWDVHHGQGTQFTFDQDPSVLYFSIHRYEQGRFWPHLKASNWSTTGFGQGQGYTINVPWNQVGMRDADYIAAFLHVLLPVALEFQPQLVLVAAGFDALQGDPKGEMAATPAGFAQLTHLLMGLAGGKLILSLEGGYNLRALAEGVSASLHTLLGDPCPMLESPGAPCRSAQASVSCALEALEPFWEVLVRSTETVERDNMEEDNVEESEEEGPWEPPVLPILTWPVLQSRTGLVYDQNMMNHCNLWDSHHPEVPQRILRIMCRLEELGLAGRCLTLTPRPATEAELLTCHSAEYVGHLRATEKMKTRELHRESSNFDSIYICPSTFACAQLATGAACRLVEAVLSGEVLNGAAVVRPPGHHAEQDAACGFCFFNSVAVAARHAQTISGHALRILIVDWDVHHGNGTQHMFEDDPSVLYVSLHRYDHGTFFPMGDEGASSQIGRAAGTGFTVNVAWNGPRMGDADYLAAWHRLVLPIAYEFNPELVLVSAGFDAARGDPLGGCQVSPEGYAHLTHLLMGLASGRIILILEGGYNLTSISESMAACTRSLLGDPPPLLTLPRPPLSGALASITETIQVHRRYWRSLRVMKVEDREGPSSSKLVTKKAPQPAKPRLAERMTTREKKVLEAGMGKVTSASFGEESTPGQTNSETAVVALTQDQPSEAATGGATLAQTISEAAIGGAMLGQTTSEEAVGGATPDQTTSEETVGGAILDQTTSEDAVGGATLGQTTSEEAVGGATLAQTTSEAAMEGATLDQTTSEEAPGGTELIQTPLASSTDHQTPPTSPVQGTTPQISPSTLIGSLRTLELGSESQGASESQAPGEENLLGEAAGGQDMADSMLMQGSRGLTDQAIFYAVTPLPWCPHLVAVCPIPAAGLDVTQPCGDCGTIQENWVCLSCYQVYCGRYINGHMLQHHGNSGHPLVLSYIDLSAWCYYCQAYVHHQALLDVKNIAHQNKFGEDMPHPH
In short: as §1

Row | inhibition at 1 µM (HDAC1 enzyme) [%] | inhibition at 1 µM (HDAC6 enzyme) [%] | HDAC1 inhibitory rate (%) (1 μM) (HDAC1 enzyme) | HDAC6 inhibitory rate (%) (1 μM) (HDAC6 enzyme) | HDAC1 inhibitory rate (%) (1 μM) (HDAC1 enzyme; 1 µM) | SMILES
1 | 28 | 96 |  |  |  | O=C(NCC1COCCN1C(=O)c1cccc(-c2ccccc2)c1)c1ccc(-c2noc(C(F)(F)F)n2)cc1 (centres unmarked) [Example 31, N-((4-(biphenyl-3-ylcarbonyl)morpholin-3-yl)methyl)-4-(5-(trifluoromethyl)-1,2,4-oxadiazol-3-yl)benzamide]
2 | 23 | 96 |  |  |  | O=C(NCC1COCCN1C(=O)c1ccccc1-c1ccccc1)c1ccc(-c2noc(C(F)(F)F)n2)cc1 (centres unmarked) [Example 32, N-((4-(biphenyl-2-ylcarbonyl)morpholin-3-yl)methyl)-4-(5-(trifluoromethyl)-1,2,4-oxadiazol-3-yl)benzamide]
3 | 47 | 99 |  |  |  | Cn1nc2ccccc2c1C(=O)N1CCOCC1CNC(=O)c1ccc(-c2noc(C(F)(F)F)n2)cc1 (centres unmarked) [Example 33, N-((4-((2-methyl-2H-indazol-3-yl)carbonyl)morpholin-3-yl)methyl)-4-(5-(trifluoromethyl)-1,2,4-oxadiazol-3-yl)benzamide]
4 | 18 | 98 |  |  |  | O=C(NCC1COCCN1C(=O)c1ccnc(C2CC2)c1)c1ccc(-c2noc(C(F)(F)F)n2)cc1 (centres unmarked) [Example 34, N-((4-(2-cyclopropylisonicotinoyl)morpholin-3-yl)methyl)-4-(5-(trifluoromethyl)-1,2,4-oxadiazol-3-yl)benzamide]
5 | 30 | 92 |  |  |  | O=C(NCC1COCCN1C(=O)C1CCc2ccccc2O1)c1ccc(-c2noc(C(F)(F)F)n2)cc1 (centres unmarked) [Example 35, N-((4-(3,4-dihydro-2H-chromen-2-ylcarbonyl)morpholin-3-yl)methyl)-4-(5-(trifluoromethyl)-1,2,4-oxadiazol-3-yl)benzamide]
6 |  |  | 21 | 105 |  | O=C(NC[C@H]1COCCN1C(=O)c1ccccc1)c1ccc(-c2noc(C(F)(F)F)n2)cc1 [Example 36, N-(((3S)-4-benzoylmorpholin-3-yl)methyl)-4-(5-(trifluoromethyl)-1,2,4-oxadiazol-3-yl)benzamide]
7 |  |  |  | 98 | 27 | O=C(NC[C@H]1COCCN1C(=O)c1cc(Cl)cc(Cl)c1)c1ccc(-c2noc(C(F)(F)F)n2)cc1 [Example 37, N-(((3S)-4-(3,5-dichlorobenzoyl)morpholin-3-yl)methyl)-4-(5-(trifluoromethyl)-1,2,4-oxadiazol-3-yl)benzamide]
8 | 25 | 100 |  |  |  | Cn1nccc1C(=O)N1CCOC[C@@H]1CNC(=O)c1ccc(-c2noc(C(F)(F)F)n2)cc1 [Example 38, N-(((3S)-4-((1-methyl-1H-pyrazol-5-yl)carbonyl)morpholin-3-yl)methyl)-4-(5-(trifluoromethyl)-1,2,4-oxadiazol-3-yl)benzamide]
9 | 18 | 100 |  |  |  | O=C(NC[C@H]1COCCN1C(=O)c1cc(F)cc(F)c1)c1ccc(-c2noc(C(F)(F)F)n2)cc1 [Example 39, N-(((3S)-4-(3,5-difluorobenzoyl)morpholin-3-yl)methyl)-4-(5-(trifluoromethyl)-1,2,4-oxadiazol-3-yl)benzamide]
10 | 17 | 99 |  |  |  | N#Cc1cc(F)cc(C(=O)N2CCOC[C@@H]2CNC(=O)c2ccc(-c3noc(C(F)(F)F)n3)cc2)c1 [Example 40, N-(((3S)-4-(3-cyano-5-fluorobenzoyl)morpholin-3-yl)methyl)-4-(5-(trifluoromethyl)-1,2,4-oxadiazol-3-yl)benzamide]
11 |  |  |  | 98 | 65 | O=C(NC[C@H]1COCCN1C(=O)c1cccc(F)c1)c1ccc(-c2noc(C(F)(F)F)n2)cc1 [Example 41, N-(((3S)-4-(3-fluorobenzoyl)morpholin-3-yl)methyl)-4-(5-(trifluoromethyl)-1,2,4-oxadiazol-3-yl)benzamide]
12 | 16 |  |  | 101 |  | COc1cccc(C(=O)N2CCOC[C@@H]2CNC(=O)c2ccc(-c3noc(C(F)(F)F)n3)cc2)c1 [Example 42, N-(((3S)-4-(3-methoxybenzoyl)morpholin-3-yl)methyl)-4-(5-(trifluoromethyl)-1,2,4-oxadiazol-3-yl)benzamide]
13 | 14 |  |  | 101 |  | N#Cc1ccccc1C(=O)N1CCOC[C@@H]1CNC(=O)c1ccc(-c2noc(C(F)(F)F)n2)cc1 [Example 43, N-(((3S)-4-(2-cyanobenzoyl)morpholin-3-yl)methyl)-4-(5-(trifluoromethyl)-1,2,4-oxadiazol-3-yl)benzamide]
14 | 16 |  |  | 99 |  | N#Cc1cccc(C(=O)N2CCOC[C@@H]2CNC(=O)c2ccc(-c3noc(C(F)(F)F)n3)cc2)c1 [Example 44, N-(((3S)-4-(3-cyanobenzoyl)morpholin-3-yl)methyl)-4-(5-(trifluoromethyl)-1,2,4-oxadiazol-3-yl)benzamide]
15 | 25 |  |  | 99 |  | N#Cc1ccc(C(=O)N2CCOC[C@@H]2CNC(=O)c2ccc(-c3noc(C(F)(F)F)n3)cc2)cc1 [Example 45, N-(((3S)-4-(4-cyanobenzoyl)morpholin-3-yl)methyl)-4-(5-(trifluoromethyl)-1,2,4-oxadiazol-3-yl)benzamide]
16 |  |  |  | 95 | 12 | O=C(NC[C@H]1COCCN1C(=O)c1ccccc1N1CCOCC1)c1ccc(-c2noc(C(F)(F)F)n2)cc1 [Example 46, N-(((3S)-4-(2-(morpholin-4-yl)benzoyl)morpholin-3-yl)methyl)-4-(5-(trifluoromethyl)-1,2,4-oxadiazol-3-yl)benzamide]
17 |  |  | 11 | 102 |  | O=C(NC[C@H]1COCCN1C(=O)c1cc(F)c(F)c(F)c1)c1ccc(-c2noc(C(F)(F)F)n2)cc1 [Example 47, N-(((3S)-4-(3,4,5-trifluorobenzoyl)morpholin-3-yl)methyl)-4-(5-(trifluoromethyl)-1,2,4-oxadiazol-3-yl)benzamide]
18 | 16 |  |  | 98 |  | O=C(NC[C@H]1COCCN1C(=O)c1ccncc1)c1ccc(-c2noc(C(F)(F)F)n2)cc1 [Example 48, N-(((3S)-4-isonicotinoylmorpholin-3-yl)methyl)-4-(5-(trifluoromethyl)-1,2,4-oxadiazol-3-yl)benzamide]
19 | 13 |  |  | 98 |  | Cc1cc(C(=O)N2CCOC[C@@H]2CNC(=O)c2ccc(-c3noc(C(F)(F)F)n3)cc2)ccn1 [Example 49, N-(((3S)-4-(2-methylisonicotinoyl)morpholin-3-yl)methyl)-4-(5-(trifluoromethyl)-1,2,4-oxadiazol-3-yl)benzamide]
20 | 15 | 99 |  |  |  | O=C(NC[C@H]1COCCN1C(=O)c1ccc(OCC(F)(F)F)nc1)c1ccc(-c2noc(C(F)(F)F)n2)cc1 [Example 51, N-(((3S)-4-((6-(2,2,2-trifluoroethoxy)pyridin-3-yl)carbonyl)morpholin-3-yl)methyl)-4-(5-(trifluoromethyl)-1,2,4-oxadiazol-3-yl)benzamide]
21 | 18 | 97 |  |  |  | O=C(NC[C@H]1COCCN1C(=O)C1CCc2ccccc2O1)c1ccc(-c2noc(C(F)(F)F)n2)cc1 (stereo partly drawn) [Example 52, N-(((3S)-4-(3,4-dihydro-2H-chromen-2-ylcarbonyl)morpholin-3-yl)methyl)-4-(5-(trifluoromethyl)-1,2,4-oxadiazol-3-yl)benzamide]
22 | 17 | 96 |  |  |  | N#CC1(C(=O)N2CCOC[C@@H]2CNC(=O)c2ccc(-c3noc(C(F)(F)F)n3)cc2)CC1 [Example 55, N-(((3S)-4-((1-cyanocyclopropyl)carbonyl)morpholin-3-yl)methyl)-4-(5-(trifluoromethyl)-1,2,4-oxadiazol-3-yl)benzamide]
